# Reference: the NIST ThermoML archive (doi:10.1021/acs.jced.7b00354)
# “And” between values parts separate entries of the source, which are not always exact repeats. Identical values can stand only once. ± gives the expanded uncertainty stated by the source.
# Conditions: Transpiration method
smiles,measurement,setting,value
"CC1=CC(=O)C=CC1=O [2,5-cyclohexadiene-1,4-dione, 2-methyl]",vapor or sublimation pressure,"282.2 K, Crystal",0.00318 ± 0.00036 kPa
same,vapor or sublimation pressure,"285.6 K, Crystal",0.00523 ± 0.00057 kPa and 0.0051 ± 0.00055 kPa
same,vapor or sublimation pressure,"286.8 K, Crystal",0.00566 ± 0.00061 kPa
same,vapor or sublimation pressure,"288.5 K, Crystal",0.00664 ± 0.00073 kPa and 0.00678 ± 0.00074 kPa
same,vapor or sublimation pressure,"290.8 K, Crystal",0.0091 ± 0.00099 kPa
same,vapor or sublimation pressure,"295.2 K, Crystal",0.01426 ± 0.0015 kPa
same,vapor or sublimation pressure,"300.4 K, Crystal",0.02498 ± 0.0027 kPa
same,vapor or sublimation pressure,"305.3 K, Crystal",0.04235 ± 0.0046 kPa
same,vapor or sublimation pressure,"310.2 K, Crystal",0.06335 ± 0.0068 kPa
same,vapor or sublimation pressure,"312.9 K, Crystal",0.08525 ± 0.0092 kPa
same,vapor or sublimation pressure,"315.2 K, Crystal",0.1054 ± 0.011 kPa
same,vapor or sublimation pressure,"317.9 K, Crystal",0.1305 ± 0.014 kPa
same,vapor or sublimation pressure,"320.1 K, Crystal",0.1774 ± 0.019 kPa
same,vapor or sublimation pressure,"322 K, Crystal",0.2004 ± 0.022 kPa
same,vapor or sublimation pressure,"325.1 K, Crystal",0.2769 ± 0.03 kPa
same,vapor or sublimation pressure,"327.8 K, Crystal",0.3444 ± 0.037 kPa
same,vapor or sublimation pressure,"330.1 K, Crystal",0.4336 ± 0.046 kPa
same,vapor or sublimation pressure,"331.6 K, Crystal",0.4466 ± 0.048 kPa
same,vapor or sublimation pressure,"332.1 K, Crystal",0.5012 ± 0.058 kPa
same,vapor or sublimation pressure,"335.2 K, Crystal",0.6342 ± 0.068 kPa
same,vapor or sublimation pressure,"336.7 K, Crystal",0.7271 ± 0.078 kPa
same,vapor or sublimation pressure,"343.2 K, Liquid",1.019 ± 0.11 kPa
same,vapor or sublimation pressure,"347.2 K, Liquid",1.264 ± 0.13 kPa
same,vapor or sublimation pressure,"351.2 K, Liquid",1.552 ± 0.17 kPa
same,vapor or sublimation pressure,"355.1 K, Liquid",1.947 ± 0.21 kPa
same,vapor or sublimation pressure,"356.8 K, Liquid",2.104 ± 0.22 kPa
same,vapor or sublimation pressure,"359.1 K, Liquid",2.373 ± 0.25 kPa
same,vapor or sublimation pressure,"363.1 K, Liquid",2.94 ± 0.31 kPa
"O=C1C=CC(=O)C=C1 [1,4-benzoquinone]",vapor or sublimation pressure,"290.2 K, Crystal",0.01002 ± 0.0011 kPa
same,vapor or sublimation pressure,"293.4 K, Crystal",0.01343 ± 0.0015 kPa
same,vapor or sublimation pressure,"297.5 K, Crystal",0.02081 ± 0.0023 kPa
same,vapor or sublimation pressure,"298.5 K, Crystal",0.02319 ± 0.0025 kPa
same,vapor or sublimation pressure,"301.4 K, Crystal",0.03014 ± 0.0032 kPa
same,vapor or sublimation pressure,"303.1 K, Crystal",0.03408 ± 0.0037 kPa
same,vapor or sublimation pressure,"307.3 K, Crystal",0.05078 ± 0.0054 kPa
same,vapor or sublimation pressure,"308.3 K, Crystal",0.0527 ± 0.0057 kPa
same,vapor or sublimation pressure,"310.2 K, Crystal",0.06526 ± 0.007 kPa
same,vapor or sublimation pressure,"313.3 K, Crystal",0.07951 ± 0.0085 kPa
same,vapor or sublimation pressure,"314.1 K, Crystal",0.08416 ± 0.0091 kPa
same,vapor or sublimation pressure,"317.3 K, Crystal",0.1098 ± 0.012 kPa
same,vapor or sublimation pressure,"320.1 K, Crystal",0.1364 ± 0.015 kPa
same,vapor or sublimation pressure,"323 K, Crystal",0.1783 ± 0.019 kPa
same,vapor or sublimation pressure,"323.3 K, Crystal",0.1841 ± 0.02 kPa
same,vapor or sublimation pressure,"324.2 K, Crystal",0.1861 ± 0.02 kPa
same,vapor or sublimation pressure,"327.2 K, Crystal",0.2502 ± 0.027 kPa and 0.2417 ± 0.026 kPa
same,vapor or sublimation pressure,"328.1 K, Crystal",0.2659 ± 0.028 kPa
same,vapor or sublimation pressure,"330.3 K, Crystal",0.3065 ± 0.033 kPa
same,vapor or sublimation pressure,"333.2 K, Crystal",0.3846 ± 0.041 kPa and 0.3832 ± 0.041 kPa
same,vapor or sublimation pressure,"334.2 K, Crystal",0.4116 ± 0.044 kPa
same,vapor or sublimation pressure,"338.1 K, Crystal",0.5504 ± 0.059 kPa
same,vapor or sublimation pressure,"338.2 K, Crystal",0.5497 ± 0.059 kPa and 0.5525 ± 0.059 kPa
